Patent US20100183600A1, “RAF Inhibitors and Their Uses” (ARQULE, INC., priority 2008, published 2010)
Read-outs that look alike come from different tables or passages of the source.

Experiments:
mutant B-RAF = molecular target: T1, mutant B-RAF (Homo sapiens, UniProt P15056, V600E); assay: Measurement of RAF activity (MEK-1 phosphorylation); assay type: biochemical; conditions: for increase in IC50 relative to compound 14: mutant B-RAF
T1 construct: purchased Upstate (Charlottesville, Va.)
Description: Materials: The RAF kinases and the anti-phospho MEK1/2 antibody were from Upstate (Charlottesville, Va.). The RAF substrate used was full length N-terminal GST-MEK-1, which was expressed in E. coli and purified in-house by HPLC. All proteins were aliquoted and stored at −80° C. Superblock™ in phosphate buffered saline (PBS) blocking reagent was form Pierce (cat. #37515). ATP was from Roche (cat. # 19035722). Alkaline Phosphatase-tagged goat anti-rabbit antibody was from Pierce (cat. # 31340).
Methods: All RAF biochemical assays were performed using an assay buffer containing 20 mM MOPS, 5 mM EGTA, 37.5 mM MgCl2, 1 mM DTT and 50 μM ATP. There was 6.25 ng/well mutant B-RAF and 7.5 ng/well MEK-1 in the final assay conditions. Compounds were serially diluted in assay buffer containing 1% DMSO and 20 μl of test compound at a concentration 3-fold more than the final concentration, and were added to a polypropylene V-well reaction plate. Vehicle control wells received buffer only with DMSO at equivalent concentrations to the test wells. […] These reaction plates were incubated at room temperature for 30 minutes. Capture of MEK-1 was initiated by transferring 50 μl of the reaction mixture to a Nunc Maxisorp™ microplate that is designed for non-specific protein capture. After 30 minute capture of MEK-1 at room temperature, this plate was washed with TBST (6×200 μL/well) to fully terminate the reaction. The plate was then blocked for 1 hour by the addition of 100 μl/well of Superblock™ in phosphate buffered saline (PBS) blocking reagent. Plate was again washed with TBST (6 times with 200 μl/well), followed by the addition of 70 μl/well of Upstate anti-phospho MEK ½ diluted 1:1000 in Pierce Superblock (PBS). After a 60 minute incubation, this plate was washed with TBST (6 times with 200 μl/well), and 70 μl of the secondary antibody (Pierce Alkaline Phosphatase tagged goat anti-rabbit) prepared at 1:4000 in Superblock, were added. After a 45 minute incubation at room temperature, the wells of the microplate were washed with TBST (6 times with 200 μl/well), and thereafter 100 μl/well of Attophos™ fluorescent alkaline phosphatase substrate was added according to the manufacturer's instructions (JBL Scientific). Fluorescence was read on a Perkin Elmer Envision multilabel reader, using the following filters: Excitation Filter: CFP430 nM, Emission Filter: Emission Filter 579 nM.

p-Erk (A375) = assay: Cell-based phosphorylation assay with electroblotting readout; parameters: species or system human; conditions: A375 cells; for EC50: Homo sapiens, A-375, 1 hr
Excerpt: Compounds of the present invention have been screened for their ability to inhibit all isoforms, both wild-type and mutant of RAF kinases (A-RAF, B-RAF and C-RAF) in general, and the mutant B-RAF (V600E) in particular in human cancer cells. A375 is a human melanoma cell line that harbors the most common B-RAF mutation-V600E found in human cancers. The ability of compounds to inhibit RAF kinases in this assay is correlated with the reduction of MEK and ERK phosphorylation, and is therefore a direct indicator of potential in vivo therapeutic activity.
Materials: A375 cells from ATCC were maintained at 37° C., 5% CO2 in DMEM media supplemented with 10% fetal bovine serum, penicillin/streptomycin and fungizone. (Invitrogen)
Methods: Test compounds were dissolved and diluted 1:1000 in DMSO. A375 cells were seeded in six-well tissue culture plates at 5-8×10^5 per well and cultured at 37° C. for 24 h. Cells were incubated with compounds for one hour before being lysed in EPage™ loading buffer (Invitrogen). Lysates were electrophoresed on 8% EPage™ gels and transferred to polyvinylidene difluoride membranes. After incubations with primary and secondary antibodies, the immunostained proteins were detected and quantitated by an Odyssey infrared imager (LI-COR). Analysis was performed by non-linear regression to generate a dose response curve. The calculated IC50 value was the concentration of the test compound that causes a 50% decrease in phospho-MEK and phospho-ERK levels. The primary antibodies used were anti-MEK (Stressgen), anti-ERK (BD Biosciences), anti-phospho-ERK and anti-phospho-MEK (Cell Signaling). The secondary antibodies used were IRDYE800 anti-rabbit, IRDYE 800 anti-mouse (Rockland), AlexaFluor680 anti-mouse and AlexaFluoro680 anti-rabbit (Invitrogen).
A375 cells were treated with 0, 12, 37, 111, 333 and 1000 nM of indicated compounds for 1 hr. The levels of Phospho-ERK and total-ERK were accessed by immunoblotting.

[1] = 50 μM ATP, MEK-1 substrate, read-out: Mut-B-Raf IC50

T1 sequence (P15056 whole entry V600E): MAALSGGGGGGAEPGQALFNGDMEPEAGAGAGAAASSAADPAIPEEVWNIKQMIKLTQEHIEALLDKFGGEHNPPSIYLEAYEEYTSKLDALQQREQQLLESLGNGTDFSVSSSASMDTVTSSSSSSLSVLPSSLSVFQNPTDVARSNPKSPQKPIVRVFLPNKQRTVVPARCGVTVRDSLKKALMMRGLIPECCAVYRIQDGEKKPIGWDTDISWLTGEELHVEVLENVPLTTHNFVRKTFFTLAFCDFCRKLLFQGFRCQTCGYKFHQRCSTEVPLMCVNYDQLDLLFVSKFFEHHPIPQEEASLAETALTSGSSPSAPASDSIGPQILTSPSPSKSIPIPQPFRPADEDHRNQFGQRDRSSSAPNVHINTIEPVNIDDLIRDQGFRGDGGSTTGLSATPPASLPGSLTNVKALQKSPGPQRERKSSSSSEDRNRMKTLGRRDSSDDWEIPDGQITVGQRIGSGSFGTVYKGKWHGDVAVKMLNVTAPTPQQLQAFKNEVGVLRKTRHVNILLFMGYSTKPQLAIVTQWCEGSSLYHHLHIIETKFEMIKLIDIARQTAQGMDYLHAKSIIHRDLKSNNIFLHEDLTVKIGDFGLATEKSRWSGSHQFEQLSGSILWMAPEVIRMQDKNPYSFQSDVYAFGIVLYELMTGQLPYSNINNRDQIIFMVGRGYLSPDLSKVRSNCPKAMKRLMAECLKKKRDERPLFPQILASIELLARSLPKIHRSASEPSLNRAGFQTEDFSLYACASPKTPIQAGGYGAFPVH

IC50 (mutant B-RAF; [1]) [nM] | EC50 (p-Erk (A375)) [nM] | Compound | increase in IC50 relative to compound 14 (mutant B-RAF) [fold] | deviation in EC50 (cell-based ERK inhibition) relative to compound 14 (p-Erk (A375)) | IC50 (mutant B-RAF) [nM]
> 3300 | 161 | O=P(O)(O)OCOc1cccc(-c2nc3occn3c2-c2ccnc(NC3CCN(S(=O)(=O)C4CC4)CC3)n2)c1 [Compound 13, (3-(5-(2-(1-(cyclopropylsulfonyl)piperidin-4-ylamino)pyrimidin-4-yl)imidazo[2,1-b]oxazol-6-yl)phenoxy)methyl dihydrogen phosphate] |  |  | 
28 | 52 | Cn1ccc(S(=O)(=O)N2CCC[C@@H](Nc3nccc(-c4c(-c5ccc(F)c(OCOP(=O)(O)O)c5)nc5occn45)n3)C2)n1 [Compound 24, (R)-(2-fluoro-5-(5-(2-(1-(1-methyl-1H-pyrazol-3-ylsulfonyl)piperidin-3-ylamino)pyrimidin-4-yl)imidazo[2,1-b]oxazol-6-yl)phenoxy)methyl dihydrogen phosphate] |  |  | 
1160 | 4 | Cn1ccc(S(=O)(=O)N2CCC[C@@H](Nc3nccc(-c4c(-c5cccc(OCOP(=O)(O)O)c5)nc5sccn45)n3)C2)n1 [Compound 16, (R)-(3-(5-(2-(1-(1-methyl-1H-pyrazol-3-ylsulfonyl)piperidin-3-ylmino)pyrimidin-4-yl)imidazo[2,1-b]thiazol-6-yl)phenoxy)methyl dihydrogen phosphate] | ~193 | ~4 fold | 
405 | 938 | O=P(O)(O)OCOc1cccc(-c2nc3sccn3c2-c2ccnc(NC3CCN(S(=O)(=O)c4ccc(Cl)cc4)CC3)n2)c1 [Compound 8, (3-(5-(2-(1-(4-chlorophenylsulfonyl)piperidin-4-ylamino)pyrimidin-4-yl)imidazo[2,1-b]thiazol-6-yl)phenoxy)methyl dihydrogen phosphate] |  |  | 
6 | 11 | O=S(=O)(c1ccc(Cl)cc1)N1CCC[C@@H](Nc2nccc(-c3c(-c4cccc(O)c4)nc4sccn34)n2)C1 [Compound 1, (R)-3-(5-(2-(1-(4-chlorophenylsulfonyl)piperidin-3-ylamino)pyrimidin-4-yl)imidazo[2,1-b]thiazol-6-yl)phenol] |  |  | 
1410 | 12 | O=P(O)(O)OCOc1cccc(-c2nc3occn3c2-c2ccnc(N[C@@H]3CCCN(S(=O)(=O)c4ccc(Cl)cc4)C3)n2)c1 [Compound 6, (R)-(3-(5-(2-(1-(4-chlorophenylsulfonyl)piperidin-3-ylamino)pyrimidin-4-yl)imidazo[2,1-b]oxazol-6-yl)phenoxy)methyl dihydrogen phosphate] |  |  | 
375 | 71 | O=P(O)(O)OCOc1cccc(-c2nc3sccn3c2-c2ccnc(N[C@@H]3CCCN(S(=O)(=O)c4ccc(Cl)cc4)C3)n2)c1 [Compound 3, (R)-(3-(5-(2-(1-(4-chlorophenylsulfonyl)piperidin-3-ylamino)pyrimidin-4-yl)imidazo[2,1-b]thiazol-6-yl)phenoxy)methyl dihydrogen phosphate] |  |  | 
1160 | 141 | Cn1ccc(S(=O)(=O)N2CCC(Nc3nccc(-c4c(-c5cccc(OCOP(=O)(O)O)c5)nc5occn45)n3)CC2)n1 [Compound 21, (3-(5-(2-(1-(1-methyl-1H-pyrazol-3-ylsulfonyl)piperidin-4-ylamino)pyrimidin-4-yl)imidazo[2,1-b]oxazol-6-yl)phenoxy)methyl dihydrogen phosphate] |  |  | 

Compound | IC50 (mutant B-RAF; [1]) [nM] | EC50 (p-Erk (A375)) [nM] | increase in IC50 relative to compound 14 (mutant B-RAF) [fold] | deviation in EC50 (cell-based ERK inhibition) relative to compound 14 (p-Erk (A375)) | IC50 (mutant B-RAF) [nM]
O=P(O)(O)Oc1cccc(-c2nc3occn3c2-c2ccnc(NC3CCN(S(=O)(=O)C4CC4)CC3)n2)c1 [Compound 12, 3-(5-(2-(1-(cyclopropylsulfonyl)piperidin-4-ylamino)pyrimidin-4-yl)imidazo[2,1-b]oxazol-6-yl)phenyl dihydrogen phosphate] |  | 177 |  |  | > 3300
O=P(O)(O)Oc1cccc(-c2nc3sccn3c2-c2ccnc(N[C@@H]3CCCN(S(=O)(=O)c4ccc(Cl)cc4)C3)n2)c1 [Compound 2, (R)-3-(5-(2-(1-(4-chlorophenylsulfonyl)piperidin-3-ylamino)pyrimidin-4-yl)imidazo[2,1-b]thiazol-6-yl)phenyl dihydrogen phosphate] |  | 260 |  |  | 1900
O=P(O)(O)Oc1cccc(-c2nc3occn3c2-c2ccnc(N[C@@H]3CCCN(S(=O)(=O)c4ccc(Cl)cc4)C3)n2)c1 [Compound 5, (R)-3-(5-(2-(1-(4-chlorophenylsulfonyl)piperidin-3-ylamino)pyrimidin-4-yl)imidazo[2,1-b]oxazol-6-yl)phenyl dihydrogen phosphate] |  | 127 |  |  | 1900
Cn1ccc(S(=O)(=O)N2CCC[C@@H](Nc3nccc(-c4c(-c5ccc(F)c(OP(=O)(O)O)c5)nc5occn45)n3)C2)n1 [Compound 23, (R)-2-fluoro-5-(5-(2-(1-(1-methyl-1H-pyrazol-3-ylsulfonyl)piperidin-3-ylamino)pyrimidin-4-yl)imidazo[2,1-b]oxazol-6-yl)phenyl dihydrogen phosphate] |  | 9 |  |  | 1050
Cn1ccc(S(=O)(=O)N2CCC[C@@H](Nc3nccc(-c4c(-c5cccc(OP(=O)(O)O)c5)nc5sccn45)n3)C2)n1 [Compound 15, (R)-3-(5-(2-(1-(1-methyl-1H-pyrazol-3-ylsulfonyl)piperidin-3-ylamino)pyrimidin-4-yl)imidazo[2,1-b]thiazol-6-yl)phenyl dihydrogen phosphate] |  | 8 | ~400 | about 2 fold | 2410
Cn1ccc(S(=O)(=O)N2CCC[C@@H](Nc3nccc(-c4c(-c5cccc(OP(=O)(O)O)c5)nc5occn45)n3)C2)n1 [Compound 18, (R)-3-(5-(2-(1-(1-methyl-1H-pyrazol-3-ylsulfonyl)piperidin-3-ylamino)pyrimidin-4-yl)imidazo[2,1-b]oxazol-6-yl)phenyl dihydrogen phosphate] |  | 87 |  |  | > 3300
O=P(O)(O)Oc1cccc(-c2nc3occn3c2-c2ccnc(NC3CCN(S(=O)(=O)c4ccc(F)cc4)CC3)n2)c1 [Compound 10, 3-(5-(2-(1-(4-fluorophenylsulfonyl)piperidin-4-ylamino)pyrimidin-4-yl)imidazo[2,1-b]oxazol-6-yl)phenyl dihydrogen phosphate] |  | 88 |  |  | 1170
